What was measured:
[1] = test system: patients with advanced solid tumors; assay: Dose-limiting toxicity, MTD and recommended dose; type: in vivo
Description: (§1) CVL218 was administered orally, and this dose‐escalation trial included nine dose levels: 100 mg QD (50 mg BID), 200 mg QD (100 mg BID), 400 mg QD (200 mg BID), 700 mg QD (350 mg BID), 1000 mg QD (500 mg BID), 1200 mg QD (600 mg BID), 1400 mg QD (700 mg BID), 1700 mg QD (850 mg BID), and 2000 mg QD (1000 mg BID). Patients enrolled in the study received a single oral dose on the first day, followed by continuous multiple dosing (twice a day taking 12 h apart) after 72 h, with the treatment cycle lasting 4 weeks. The period during which patients received a single dose is designated as cycle 0 (C0), lasting 72 h. After this period, patients begin multiple dosing, referred to as cycle 1 (C1). An initial accelerated titration design was employed for the three lowest dose groups, and the “3+3” design was applied starting with the 300 mg BID cohort.
The primary objectives were to assess safety and tolerability as well as to determine the MTD, DLT, and dose recommended for further study. DLT was defined as any of the following events occurring during cycle 0 (including 72 h wash‐out period after a single dose) and cycle 1 per Common Terminology Criteria for Adverse Events (CTCAE) version 5.0: grade 4 anemia; grade 4 neutropenia; grade 3 neutropenia with fever ≥38.5°C; grade 4 thrombocytopenia; grade 3 thrombocytopenia associated with bleeding; grade ≥2 neurotoxicity; any other grade ≥3 nonhematological toxicities (excluding alopecia). The secondary objectives were to assess the PK and preliminary efficacy of CVL218.

[2] = Plasma PK after a single oral dose (Cycle 0 Day 1); type: in vivo, patients
Description: as §1
A clinical PK study of CVL218 was conducted, involving blood samples collection during single‐dose administration (before treatment and 0.5, 1, 2, 3, 4, 5, 6, 8, 10, 12, and 24 h after treatment on C0D1) and multiple dosing (before treatment and 0.5, 1, 2, 3, 4, 5, 6, 8, 10, and 12 h after treatment on C1D1; before treatment on C1D8, C1D15, and C1D22; before treatment and 0.5, 1, 2, 3, 4, 5, 6, 8, 10, and 12 h after treatment on C1D28)
Single‐dose and multiple‐dose PK parameters included C max, T max, elimination half‐life (T 1/2), AUC0– t , AUC0–inf, oral clearance (CL/F), and apparent volume of distribution (V z/F) for CVL218. Tumor response was assessed per RECIST 1.1. ORR was defined as proportion of patients with a CR or PR on at least one visit, while DCR was defined as proportion of patients with a CR or PR or SD. PFS was defined as the time from the first dose of either drug to investigator assessed radiologic PD or to death of any cause. PFS would be censored at the time of last tumor assessment.
Subjects who received at least one dose of CVL218 with postadministration safety records were included in safety analysis set. Subjects who received at least one dose of CVL218 with at least one evaluable PK parameter were included in PK analysis set. Per‐protocol set were used for efficacy analysis. Descriptive statistics of safety were presented per CTCAE v5.0. The PK parameters T max and T 1/2 were shown as the median (min, max) and mean ± SD, respectively. A two‐sided p < 0.05 was considered to indicate statistical significance. Statistical analysis was performed by using GraphPad prism 8.0.2 and R‐4.3.3.

[3] = single dose C0D1, 100mg QD, n 1
[4] = single dose C0D1, 200mg QD, n 1
[5] = single dose C0D1, 400mg QD, n 1
[6] = single dose C0D1, 700mg QD, n 4
[7] = single dose C0D1, 1000mg QD, n 4
[8] = single dose C0D1, 1200mg QD, n 4
[9] = single dose C0D1, 1400mg QD, n 6
[10] = single dose C0D1, 1700mg QD, n 5

Compound: CNCc1ccc(-c2cc3cc(F)cc(C(N)=O)c3o2)cc1.Cl [CVL218]
- Any DLT ([1]; 50 mg BID (N = 1)): 0 n (%)
- DLT: Increased creatinine ([1]; 50 mg BID (N = 1)): 0 n (%)
- DLT: Renal failure ([1]; 50 mg BID (N = 1)): 0 n (%)
- Any DLT ([1]; 100 mg BID (N = 1)): 0 n (%)
- DLT: Increased creatinine ([1]; 100 mg BID (N = 1)): 0 n (%)
- DLT: Renal failure ([1]; 100 mg BID (N = 1)): 0 n (%)
- Any DLT ([1]; 200 mg BID (N = 1)): 0 n (%)
- DLT: Increased creatinine ([1]; 200 mg BID (N = 1)): 0 n (%)
- DLT: Renal failure ([1]; 200 mg BID (N = 1)): 0 n (%)
- Any DLT ([1]; 350 mg BID (N = 4)): 0 n (%)
- DLT: Increased creatinine ([1]; 350 mg BID (N = 4)): 0 n (%)
- DLT: Renal failure ([1]; 350 mg BID (N = 4)): 0 n (%)
- Any DLT ([1]; 500 mg BID (N = 4)): 0 n (%)
- DLT: Increased creatinine ([1]; 500 mg BID (N = 4)): 0 n (%)
- DLT: Renal failure ([1]; 500 mg BID (N = 4)): 0 n (%)
- Any DLT ([1]; 600mg BID (N=4)): 0 n (%)
- DLT: Increased creatinine ([1]; 600mg BID (N=4)): 0 n (%)
- DLT: Renal failure ([1]; 600mg BID (N=4)): 0 n (%)
- Any DLT ([1]; 700 mg BID (N = 6)): 1 (16.7) n (%)
- DLT: Increased creatinine ([1]; 700 mg BID (N = 6)): 0 n (%)
- DLT: Renal failure ([1]; 700 mg BID (N = 6)): 1 (16.7) n (%)
- Any DLT ([1]; 850mg BID (N=5)): 2 (40.0) n (%)
- DLT: Increased creatinine ([1]; 850mg BID (N=5)): 2 (40.0) n (%)
- DLT: Renal failure ([1]; 850mg BID (N=5)): 0 n (%)
- Any DLT ([1]; Overall (N=26)): 3 (11.5) n (%)
- DLT: Increased creatinine ([1]; Overall (N=26)): 2 (7.7) n (%)
- DLT: Renal failure ([1]; Overall (N=26)): 1 (3.8) n (%)
- recommended dose for further study ([1]; oral): 700 mg BID
- maximum tolerated dose (MTD) ([1]; oral, patients with advanced solid tumors): 700 mg BID
- AUC0-inf, Geometric Mean [2, 3]: 231.0 ng·h/mL
- AUC0-t, Geometric Mean [2, 3]: 207.0 ng·h/mL
- Cl/F, Geometric Mean [2, 3]: 432000.0 mL/h
- Cmax, Geometric Mean [2, 3]: 40.9 ng/mL
- T1/2, Mean [2, 3]: 3.6 h
- Vz/F, Geometric Mean [2, 3]: 2270000.0 mL
- AUC0-inf, Geometric Mean [2, 4]: 1360.0 ng·h/mL
- AUC0-t, Geometric Mean [2, 4]: 1310.0 ng·h/mL
- Cl/F, Geometric Mean [2, 4]: 147000.0 mL/h
- Cmax, Geometric Mean [2, 4]: 218.0 ng/mL
- T1/2, Mean [2, 4]: 5.1 h
- Vz/F, Geometric Mean [2, 4]: 1080000.0 mL
- AUC0-inf, Geometric Mean [2, 5]: 2010.0 ng·h/mL
- AUC0-t, Geometric Mean [2, 5]: 1900.0 ng·h/mL
- Cl/F, Geometric Mean [2, 5]: 199000.0 mL/h
- Cmax, Geometric Mean [2, 5]: 334.0 ng/mL
- T1/2, Mean [2, 5]: 6.0 h
- Vz/F, Geometric Mean [2, 5]: 1710000.0 mL
- AUC0-inf, Geometric Mean [2, 6]: 3450.0 ng·h/mL
- AUC0-t, Geometric Mean [2, 6]: 3260.0 ng·h/mL
- Cl/F, Geometric Mean [2, 6]: 203000.0 mL/h
- Cmax, Geometric Mean [2, 6]: 360.0 ng/mL
- T1/2, Mean [2, 6]: 6.3 h
- Vz/F, Geometric Mean [2, 6]: 1700000.0 mL
- AUC0-inf, Geometric Mean [2, 7]: 4820.0 ng·h/mL
- AUC0-t, Geometric Mean [2, 7]: 4095.0 ng·h/mL
- Cl/F, Geometric Mean [2, 7]: 212000.0 mL/h
- Cmax, Geometric Mean [2, 7]: 579.5 ng/mL
- T1/2, Mean [2, 7]: 6.2 h
- Vz/F, Geometric Mean [2, 7]: 2205000.0 mL
- AUC0-inf, Geometric Mean [2, 8]: 4415.0 ng·h/mL
- AUC0-t, Geometric Mean [2, 8]: 4175.0 ng·h/mL
- Cl/F, Geometric Mean [2, 8]: 276000.0 mL/h
- Cmax, Geometric Mean [2, 8]: 547.5 ng/mL
- T1/2, Mean [2, 8]: 6.3 h
- Vz/F, Geometric Mean [2, 8]: 2155000.0 mL
- AUC0-inf, Geometric Mean [2, 9]: 5360.0 ng·h/mL
- AUC0-t, Geometric Mean [2, 9]: 5190.0 ng·h/mL
- Cl/F, Geometric Mean [2, 9]: 274500.0 mL/h
- Cmax, Geometric Mean [2, 9]: 633.0 ng/mL
- T1/2, Mean [2, 9]: 4.7 h
- Vz/F, Geometric Mean [2, 9]: 1920000.0 mL
- AUC0-inf, Geometric Mean [2, 10]: 4180.0 ng·h/mL
- AUC0-t, Geometric Mean [2, 10]: 4070.0 ng·h/mL
- Cl/F, Geometric Mean [2, 10]: 407000.0 mL/h
- Cmax, Geometric Mean [2, 10]: 408.0 ng/mL
- T1/2, Mean [2, 10]: 5.8 h
- Vz/F, Geometric Mean [2, 10]: 2780000.0 mL
- median Tmax ([2]; single dose, range over cohorts): 1 to 4 h
- mean half-life ([2]; single oral dose, range over cohorts): 3.6 to 6.3 h
